The record followed here is patent US10364256B2 (GlaxoSmithKline Intellectual Property Development Limited, priority 2015, dated 2019).

Read-outs that look alike come from different tables or passages of the source.

For assay [1], the system named is NQO1 specific enzyme activity in BEAS-2B cells (marker for NRF2 activation). Nature of the assay: BEAS-2B NQO1 MTT Assay. It counts as cell-based. The settings on record: Homo sapiens, compound incubated 48 hours, read-out: EC50 (NQO1 specific enzyme activity induction). Summed up:
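NQO1 specific activity induction is derived from the rate of MTT reduction (ΔOD/min, 570 nm, 30 min kinetic read) in crude lysates of BEAS-2B cells exposed to compound for 48 h. A 3-parameter fit gives EC50, reported as pEC50; part of each lysate goes to Cell Titer Glo.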

For assay [2], the target named is T1, full length Keap1 protein / full length NRF2 protein (Homo sapiens, UniProt Q14145).
T1 construct: full length NRF2 protein and full length Keap1 protein (Keap1 exists a dimer) are used; His
T1 sequence (Q14145 whole entry): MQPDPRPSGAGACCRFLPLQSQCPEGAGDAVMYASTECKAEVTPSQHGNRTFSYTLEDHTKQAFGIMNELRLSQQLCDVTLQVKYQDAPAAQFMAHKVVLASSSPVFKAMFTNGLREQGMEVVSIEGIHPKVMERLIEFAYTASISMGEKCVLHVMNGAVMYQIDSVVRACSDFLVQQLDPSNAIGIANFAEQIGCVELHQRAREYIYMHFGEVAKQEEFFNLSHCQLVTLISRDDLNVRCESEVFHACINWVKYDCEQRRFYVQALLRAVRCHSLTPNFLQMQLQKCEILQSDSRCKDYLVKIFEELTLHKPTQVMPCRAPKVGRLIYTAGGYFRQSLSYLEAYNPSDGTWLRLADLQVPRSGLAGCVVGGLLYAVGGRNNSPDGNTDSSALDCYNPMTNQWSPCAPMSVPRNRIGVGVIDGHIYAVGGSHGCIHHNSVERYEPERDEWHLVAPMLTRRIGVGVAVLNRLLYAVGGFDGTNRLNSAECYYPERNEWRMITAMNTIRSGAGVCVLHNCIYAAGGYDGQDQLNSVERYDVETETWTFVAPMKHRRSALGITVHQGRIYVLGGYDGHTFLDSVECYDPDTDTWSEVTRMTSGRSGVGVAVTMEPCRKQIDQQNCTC
Nature of the assay: NRF2-Keap1 TR-FRET Low Protein Assay. It counts as binding. Conditions: 1.25 nM Keap1 FlagHis and 2.5 nM biotin-NRF2 added. The gist of the method: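 Flag-tagged full-length Keap1 was preincubated with compound (3-fold series) for 2.25 h at 37 °C in Tris pH 8.0/MgCl2/NaCl/BSA/DTT/CHAPS. Biotin-Avi-NRF2 (added at 2.5 nM) was then bound for 1.25 h at 4 °C. Eu-streptavidin/anti-Flag-APC TR-FRET (665/615 nm) was read after 1 h at RT, and pIC50 came from a four-parameter fit.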
(Time-resolved FRET reads energy transfer from a long-lived donor to a nearby acceptor.)

The EC50 is the concentration needed to bring the measured effect to its halfway point. One may read the IC50 as the concentration at which inhibition is half-maximal. Consider `Cn1cc([C@H]2C[C@@H]2c2c(C(=O)O)cnn2-c2cccc(-c3cccc(OCC4CCCC(Cl)C4)c3)c2)nn1` (mixture of isomers) [Example 187, 1-(3′-((3-chlorocyclohexyl)methoxy)-[1,1′-biphenyl]-3-yl)-5-((1,2-trans)-2-(1-methyl-1H-1,2,3-triazol-4-yl)cyclopropyl)-1H-pyrazole-4-carboxylic acid], for which, in assay [1], the concentration giving a half-maximal response (EC50) was 10 to 100 nM. The compound further displayed a concentration for half-maximal inhibition (IC50) in assay [2] of 10 to 100 nM.

Regarding `CO[C@H]1CC[C@H](COc2cccc(-c3cccc(-n4ncc(C(=O)O)c4[C@H]4C[C@@H]4c4cn(C)nn4)c3)c2)CC1` (racemic) [Example 176, 1-(3′-(((1R,4S)-4-Methoxycyclohexyl)methoxy)-[1,1′-biphenyl]-3-yl)-5-((1,2-trans)-2-(1-methyl-1H-1,2,3-triazol-4-yl)cyclopropyl)-1H-pyrazole-4-carboxylic acid], the EC50 in assay [1] was in the range of 100 to 1000 nM. Besides, the IC50 in assay [2] lay within 10 to 100 nM.

As to `COC1CCCC(COc2cccc(-c3cccc(-n4ncc(C(=O)O)c4[C@H]4C[C@@H]4c4cn(C)nn4)c3)c2)C1` (mixture of isomers) [Example 178, 1-(3′-((3-Methoxycyclohexyl)methoxy)-[1,1′-biphenyl]-3-yl)-5-((1,2-trans)-2-(1-methyl-1H-1,2,3-triazol-4-yl)cyclopropyl)-1H-pyrazole-4-carboxylic acid], in assay [1], the EC50 fell in the range of 100 to 1000 nM. Besides, the IC50 in assay [2] is 10 to 100 nM.

Regarding `CC(Oc1cccc(-c2cccc(-n3ncc(C(=O)O)c3C3CC3c3cn(C)nn3)c2)c1)C1CCCCC1` (stereo not drawn) [Example 219, 1-(3′-(1-Cyclohexylethoxy)-[1,1′-biphenyl]-3-yl)-5-(2-(1-methyl-1H-1,2,3-triazol-4-yl)cyclopropyl)-1H-pyrazole-4-carboxylic acid], the concentration for a half-maximal effect (EC50) in assay [1] (BEAS-2B, 48 h) was in the range of 10 to 100 nM. In addition, in assay [2], the concentration for half-maximal inhibition (IC50) lay in the range of 10 to 100 nM.

For the compound `Cc1nn(-c2cccc(-c3cccc(OCC4CCCCC4)c3)c2)c(C2CC2c2cn(C)nn2)c1C(=O)O` (stereo not drawn) [Example 188, 1-(3′-(cyclohexylmethoxy)-[1,1′-biphenyl]-3-yl)-3-methyl-5-(2-(1-methyl-1H-1,2,3-triazol-4-yl)cyclopropyl)-1H-pyrazole-4-carboxylic Acid], the EC50 in assay [1] is 100 to 1000 nM. Besides, in assay [2], the half-maximal inhibitory concentration (IC50) is 1000 to 10000 nM.

As to `CCc1nc(-c2cccc(-c3cccc(-n4ncc(C(=O)O)c4C4CC4)c3)c2)no1` [Example 209, 5-Cyclopropyl-1-(3′-(5-ethyl-1,2,4-oxadiazol-3-yl)-[1,1′-biphenyl]-3-yl)-1H-pyrazole-4-carboxylic Acid], the EC50 in assay [1] fell in the range of 1000 to 10000 nM. Further, the concentration for half-maximal inhibition (IC50) in assay [2] was in the range of 1000 to 10000 nM.

On to `Cn1cc(C2CC2c2c(C(=O)O)cnn2-c2cccc(-c3cccc(SCC4CCCCC4)c3)c2)nn1` (stereo not drawn) [Example 179, 1-(3′-((Cyclohexylmethyl)thio)-[1,1′-biphenyl]-3-yl)-5-(2-(1-methyl-1H-1,2,3-triazol-4-yl)cyclopropyl)-1H-pyrazole-4-carboxylic acid], for which the EC50 in assay [1] lay in the range of 1 to 10 nM. In assay [2], this compound yielded an IC50 of 10 to 100 nM.

With `CCC[C@@H]1CCCCN1C(=O)c1cccc(-c2cccc(-n3nc(C)c(C(=O)O)c3C3CC3c3cn(C)nn3)c2)c1` (stereo partly drawn) [Example 202, 3-Methyl-5-(2-(1-methyl-1H-1,2,3-triazol-4-yl)cyclopropyl)-1-(3′-((R)-2-propylpiperidine-1-carbonyl)-[1,1′-biphenyl]-3-yl)-1H-pyrazole-4-carboxylic acid], the EC50 in assay [1] (BEAS-2B, 48 h) fell in the range of 100 to 1000 nM. In addition, the half-maximal inhibitory concentration (IC50) in assay [2] is less than 10 nM.

Consider `Cn1cc([C@@H]2C[C@H]2c2c(C(=O)O)cnn2-c2cccc(-c3cccc(OC[C@H]4CC[C@H](C(F)(F)F)CC4)c3)c2)nn1` (racemic) [Example 146, 5-((1,2-trans)-2-(1-Methyl-1H-1,2,3-triazol-4-yl)cyclopropyl)-1-(3′-(((1r,4R)-4-(trifluoromethyl)cyclohexyl)methoxy)-[1,1′-biphenyl]-3-yl)-1H-pyrazole-4-carboxylic acid], for which the EC50 in assay [1] lay within 10 to 100 nM. In assay [2], this compound returned an IC50 of 10 to 100 nM.

`CC(Oc1cccc(-c2cccc(-n3ncc(C(=O)O)c3C3CC3c3cn(C)nn3)c2)c1)C1CC1` (stereo not drawn) [Example 231, 1-(3′-(1-Cyclopropylethoxy)-[1,1′-biphenyl]-3-yl)-5-(2-(1-methyl-1H-1,2,3-triazol-4-yl)cyclopropyl)-1H-pyrazole-4-carboxylic acid]: in assay [1], the concentration for a half-maximal effect (EC50) lay within 100 to 1000 nM. In addition, in assay [2], the IC50 was in the range of 10 to 100 nM.

As to `CCC[C@@H]1CCCCN1C(=O)c1cccc(-c2cccc(-n3ncc(C(=O)O)c3C3CC3c3cn(C)nn3)n2)c1` (stereo partly drawn) [Example 196, 5-(2-(1-Methyl-1H-1,2,3-triazol-4-yl)cyclopropyl)-1-(6-(3-((R)-2-propylpiperidine-1-carbonyl)phenyl)pyridin-2-yl)-1H-pyrazole-4-carboxylic Acid], the EC50 in assay [1] (BEAS-2B, 48 h) was 100 to 1000 nM. Besides, in assay [2], the concentration for half-maximal inhibition (IC50) was less than 10 nM.

Consider `CC(Oc1cccc(-c2cccc(-n3ncc(C(=O)O)c3[C@H]3C[C@@H]3c3cn(C)nn3)c2)c1)C1CCCCC1` (single isomer, unassigned) [Example 191], for which, in assay [1] (BEAS-2B, 48 h), the EC50 lay in the range of 100 to 1000 nM. In assay [2], this compound showed an IC50 of 100 to 1000 nM.

Regarding `CCC[C@@H]1CCCCN1C(=O)c1cccc(-c2cccc(-n3ncc(C(=O)O)c3C3CC3c3cnn(C)c3)c2)c1` (stereo partly drawn) [Example 213, 5-(2-(1-Methyl-1H-pyrazol-4-yl)cyclopropyl)-1-(3′-((R)-2-propylpiperidine-1-carbonyl)-[1,1′-biphenyl]-3-yl)-1H-pyrazole-4-carboxylic Acid], the EC50 in assay [1] (BEAS-2B, 48 h) lay within 100 to 1000 nM. This compound also registered an IC50 in assay [2] of less than 10 nM.

Consider `Cn1cc([C@@H]2C[C@H]2c2c(C(=O)O)cnn2-c2cccc(-c3cccc(OCC4CCCSC4)c3)c2)nn1` (mixture of isomers) [Example 144, 5-((1,2-trans)-2-(1-Methyl-1H-1,2,3-triazol-4-yl)cyclopropyl)-1-(3′-((tetrahydro-2H-thiopyran-3-yl)methoxy)-[1,1′-biphenyl]-3-yl)-1H-pyrazole-4-carboxylic Acid], for which the concentration for a half-maximal effect (EC50) in assay [1] was in the range of 10 to 100 nM. The same compound yielded an IC50 in assay [2] of 10 to 100 nM.

As to `CC(Oc1cccc(-c2cccc(-n3ncc(C(=O)O)c3C3CC3c3cn(C)nn3)c2)c1)C1CCOCC1` (stereo not drawn) [Example 227, 5-(2-(1-Methyl-1H-1,2,3-triazol-4-yl)cyclopropyl)-1-(3′-(1-(tetrahydro-2H-pyran-4-yl)ethoxy)-[1,1′-biphenyl]-3-yl)-1H-pyrazole-4-carboxylic Acid], the EC50 in assay [1] was in the range of 100 to 1000 nM. The IC50 in assay [2] lay within 10 to 100 nM.

With `COC(c1cccc(-c2cccc(-n3ncc(C(=O)O)c3C3CC3c3cn(C)nn3)c2)c1)C1CCCC1` (stereo not drawn) [Example 183, 1-(3′-(Cyclopentyl(methoxy)methyl)-[1,1′-biphenyl]-3-yl)-5-(2-(1-methyl-1H-1,2,3-triazol-4-yl)cyclopropyl)-1H-pyrazole-4-carboxylic acid], in assay [1], the EC50 lay within 100 to 1000 nM. Moreover, the 50% inhibitory concentration (IC50) in assay [2] fell in the range of 10 to 100 nM.

In the case of `CC1(C)CCc2cnn(-c3cccc(-c4cccc(-n5ncc(C(=O)O)c5C(F)(F)F)n4)c3)c21` [Example 204, 1-(6-(3-(6,6-Dimethyl-5,6-dihydrocyclopenta[c]pyrazol-1(4H)-yl)phenyl)pyridin-2-yl)-5-(trifluoromethyl)-1H-pyrazole-4-carboxylic Acid], the EC50 in assay [1] was in the range of 100 to 1000 nM. The compound further registered an IC50 in assay [2] of 100 to 1000 nM.

For `Cn1cc(C2CC2c2c(C(=O)O)cnn2-c2cccc(-c3cccc(CCC4CCCCC4)c3)c2)nn1` (stereo not drawn) [Example 233, 1-(3′-(2-Cyclohexylethyl)-[1,1′-biphenyl]-3-yl)-5-(2-(1-methyl-1H-1,2,3-triazol-4-yl)cyclopropyl)-1H-pyrazole-4-carboxylic Acid], the half-maximal effective concentration (EC50) in assay [1] was 1 to 10 nM. The same compound registered an IC50 in assay [2] of 10 to 100 nM.
